Measured values reported in patent US20180148648A1, “REACTIVE MESOGENS” (Merck Patent GmbH, priority 2015, published 2018).

Experiment: Yellowing study by UV-Vis percentage transmission after UV exposure
Type: physicochemical
Conditions: 1 wt. % in dichloromethane; percentage transmission across visible range; cured at 0, 100, 500, 1000 and 3000 mJ; FIG. 2
Source text: UV-Vis spectroscopy was used to measure the compound yellowing by measuring the percentage transmission for each of the compounds across the visible range. This was done by dissolving 1 wt. % of each compound in a solvent, usually dichloromethane, and measuring the solutions percentage transmission on the Hitachi UV-Vis spectrometer, with air as a baseline. The solutions were then cured at a variety of different doses (0, 100, 500, 1000 and 3000 mJ) and the transmission measured again.
Anhydrous dichloromethane was used to dissolve the mixtures, as it remains unaffected when exposed to UV light. By comparing these percentage transmissions it could be concluded, which compound yellow and to what extent.

| change in yellowing when exposed to UV-light | Compound |
| --- | --- |
| least amount of change in yellowing | C=CC(=O)OCCCCCCOc1ccc(C(=O)Oc2ccc(C#Cc3ccc(OC)cc3)cc2Cl)cc1 [A] |
| significant increase in yellowing | C=CC(=O)OCCCCCCOc1ccc(C(=O)Oc2ccc(C#Cc3ccc(OC)cc3)cc2C)cc1 [B] |
| least amount of change in yellowing | C=CC(=O)OCCCCCCOc1ccc(C(=O)Oc2ccc(C#Cc3ccc(OC)cc3)cc2F)cc1 [RM-1] |
